In the NIST ThermoML archive (doi:10.1016/j.tca.2011.10.013):

Test: mn = molality of the nth substance listed, in mol/kg
Settings: 101 kPa, Liquid; for speed of sound: Sing-around technique in a fixed-path interferometer; for mass density: Vibrating tube method

OC[C@H]1O[C@@](CO)(O[C@H]2O[C@H](CO)[C@@H](O)[C@H](O)[C@H]2O)[C@@H](O)[C@@H]1O [D-sucrose] + O
m1 = 1.274
Settings	mass density [kg/m3]	speed of sound [m/s]
298.15 K	1127.37	1607.9
303.15 K	1125.37	1615.6
308.15 K	1123.2	1621.9
313.15 K	1120.73	1627
318.15 K	1118.18	1630.8
323.15 K	1115.44	1633.3

O=C[C@H](O)[C@@H](O)[C@H](O)[C@H](O)CO [D-glucose] + O
m1 = 1.13
Settings	mass density [kg/m3]	speed of sound [m/s]
298.15 K	1065.07	1564.8
303.15 K	1063.3	1574.3
308.15 K	1061.36	1582.4
313.15 K	1059.24	1589.1
318.15 K	1056.98	1594.4
323.15 K	1054.25	1598.5
